Results from patent US7456199B2, “Biphenyl compounds useful as muscarinic receptor antagonists” (Theravance, Inc., priority 2004, dated 2008).

Tested on: MCh depressor responses
Assay: Methacholine-induced depressor responses in conscious guinea pigs
Assay type: in vivo, guinea pig
Details: inhalation
From the text: Healthy, adult, male Sprague-Dawley guinea pigs (Harlan, Indianapolis, Ind.), weighing between 200 and 300 g were used in these studies. Under isoflurane anesthesia (to effect), animals were instrumented with common carotid artery and jugular vein catheters (PE-50 tubing). The catheters were exteriorized utilizing a subcutaneous tunnel to the subscapular area. All surgical incisions were sutured with 4-0 Ethicon Silk and the catheters locked with heparin (1000 units/mL). Each animal was administered saline (3 mL, SC) at the end of surgery as well as buprenorphine (0.05 mg/kg, IM). Animals were allowed to recover on a heating pad before being returned to their holding rooms.
Approximately 18 to 20 hours following surgery, the animals were weighed and the carotid artery catheter on each animal was connected to a transducer for recording arterial pressure. Arterial pressure and heart rate was recorded using a Biopac MP-100 Acquisition System. Animals were allowed to acclimate and stabilize for a period of 20 minutes.
Each animal was challenged with MCh (0.3 mg/kg, IV) administered through the jugular venous line and the cardiovascular response was monitored for 10 minutes. […] At 1.5 and 24 h post-dosing, the animals were re-challenged with MCh (0.3 mg/kg, IV) and the hemodynamic response was determined. […]

Compound: O=C(CCN1CCC(OC(=O)Nc2ccccc2-c2ccccc2)CC1)Nc1ccc(CNCc2ccc(O)cc2)cc1 [Example 1, Biphenyl-2-ylcarbamic Acid 1-(2-{4-[(4-Hydroxybenzylamino)methyl]phenylcarbamoyl}ethyl)piperidin-4-yl Ester]
- apparent lung-selectivity index (ratio of anti-depressor ID50 to bronchoprotective ID50): greater than 5
